Experimental data reported in PubChem BioAssay AID720592 (Broad Institute, 2013).
Active and inactive are the calls of the source. The rule behind the calls is not given here.

Biological target: BioA (adenosylmethionine-8-amino-7-oxononanoate aminotransferase), Mycobacterium tuberculosis
Test: Mtb BioA aminotransferase inhibitors, dose response, biochemical, plate reader, dry powder samples (AID 720592)
Conditions: purified Mtb BioA enzyme, plate reader activity

Row | SMILES | AC50
1 | Cc1ccccc1/C=C(\CCC(=O)O)c1nc2ccccc2s1 | > 20 µM (inactive)
2 | COc1ccc(NC(=O)N2CCN(c3ccccc3)CC2)cc1 | > 20 µM (inactive)
3 | O=C(Nc1cccnc1)c1cnn2c(C(F)(F)F)cc(-c3ccccc3)nc12 | > 20 µM (inactive)
4 | CC(=O)c1ccc(N2CCN(C(=O)c3cccc(Cl)c3)CC2)cc1 | > 20 µM (inactive)
5 | O=C(Nc1ccc(F)cc1)N1CCN(c2ccccc2)CC1 | > 20 µM (inactive)
6 | COc1ccc(C(=O)N2CCN(c3ccc(C(C)=O)cc3)CC2)cc1 | > 20 µM (inactive)
7 | O=C(c1ccc2c(c1)OCO2)N1CCN(c2ccc(Cl)cc2)CC1 | > 20 µM (inactive)
8 | Cc1cc(C)n2nc(C(=O)Nc3cccnc3)nc2n1 | > 20 µM (inactive)

Same assay, conditions: purified Mtb BioA enzyme, plate reader activity; at 10 µM (top of the series)

Row | SMILES | inhibition
9 | CCOC(=O)N1CCN(C(=O)Nc2ccc3snnc3c2)CC1 | inactive
10 | COc1cccc(C(=O)N2CCN(c3ccc(C(C)=O)cc3)CC2)c1 | inactive
11 | CC(=O)c1ccc(N2CCN(C(=O)c3ccc4ncsc4c3)CC2)cc1 | inactive
12 | COc1cccc(NC(=O)N2CCN(c3ccccc3)CC2)c1 | inactive
13 | CC(=O)c1ccc(N2CCN(C(=O)c3ccc4c(c3)OCCO4)CC2)cc1 | inactive
14 | Cc1ccc(/C=C(\CC(=O)O)c2nc3ccccc3s2)cc1[N+](=O)[O-] | inactive
15 | Cc1ccc(/C=C(\CCCC(=O)O)c2nc3ccccc3s2)cc1[N+](=O)[O-] | inactive
16 | COc1ccc(-c2cc(C(F)(F)F)n3nc(C(=O)Nc4cccnc4)cc3n2)cc1 | inactive
17 | CC(=O)c1ccc(N2CCN(Cc3ccc4c(c3)OCO4)CC2)cc1 | inactive
18 | O=C(Nc1cccnc1)c1cnn2c(C(F)F)cc(C3CC3)nc12 | inactive
19 | CCc1ccc(N2CCN(C(=O)c3ccc4c(c3)OCO4)CC2)cc1 | inactive
20 | O=C(Nc1ccc(Cl)cc1)c1cc2nc(C3CC3)cc(C(F)(F)F)n2n1 | inactive
21 | CC(=O)c1ccc(N2CCN(C(=O)c3ccc(F)cc3)CC2)cc1 | inactive
22 | Cc1nc2cc(NC(=O)N3CCN(c4ccccc4)CC3)ccc2o1 | inactive
23 | O=C(O)CC/C(=C\c1ccccc1[N+](=O)[O-])c1nc2ccccc2s1 | inactive
24 | Cc1ccc(-c2cc(C(F)(F)F)n3nc(C(=O)Nc4cccnc4)cc3n2)cc1 | inactive
25 | CCc1ccc(C(=O)N2CCN(Cc3ccc4c(c3)OCO4)CC2)cc1 | inactive
26 | Cc1cc(C)n2nc(C(=O)Nc3cccnc3)cc2n1 | inactive
27 | O=C(Nc1ccccc1)N1CCN(c2ccccc2)CC1 | inactive
28 | CCN(CC)c1ccc2cc(C(=O)c3cccs3)c(=O)oc2c1 | inactive
29 | O=C(Nc1ccc(Cl)c(-c2nc3ccccc3[nH]2)c1)c1cccnc1 | inactive
30 | CC(=O)c1ccc(N2CCN(C(=O)c3cccc(F)c3)CC2)cc1 | inactive
31 | O=C(Nc1ccc2snnc2c1)N1CCN(c2ccccc2)CC1 | inactive
32 | CC(=O)c1ccc(N2CCN(C(=O)c3ccc(Br)cc3)CC2)c(F)c1 | inactive
33 | CC(=O)c1ccc(N2CCN(C(=O)c3ccc4c(c3)OCO4)CC2)cc1 | inactive
34 | Cc1ccc(/C=C(\CCC(=O)O)c2nc3ccccc3s2)cc1[N+](=O)[O-] | inactive

Row | SMILES | inhibition
35 | CC(=O)c1ccc(N2CCN(C(=O)c3ccccc3)CC2)cc1 | inactive
36 | O=C(O)CC/C(=C\c1ccc([N+](=O)[O-])cc1)c1nc2ccccc2s1 | inactive
37 | O=C(c1ccc2c(c1)OCO2)N1CCN(c2ccccc2)CC1 | inactive
38 | O=C(Nc1cccc(F)c1)N1CCN(c2ccccc2)CC1 | inactive
39 | COc1cccc(NC(=O)CCC2CCN(C(=O)c3ccc(C(C)=O)s3)CC2)c1 | inactive
40 | CC(C)(C)c1ccc(C(=O)N2CCN(c3ccc4c(c3)OCO4)CC2)cc1 | inactive
41 | Cc1ccc(NC(=O)N2CCN(c3ccccc3)CC2)cc1 | inactive
42 | CC(=O)c1ccc(N2CCN(C(=O)c3ccc(C)cc3)CC2)cc1 | inactive
43 | O=C(COc1ccc2ccc(=O)oc2c1)N1CCN(c2ccc(F)cc2)CC1 | inactive
44 | CC(=O)c1ccc(N2CCN(C(=O)c3ccc(Cl)cc3)CC2)cc1 | inactive
45 | COc1ccc(N2CCN(C(=O)c3ccc4c(c3)OCO4)CC2)cc1 | inactive
46 | O=C(c1ccc2c(c1)OCO2)N1CCN(Cc2ccccc2)CC1 | inactive
47 | Cc1nc2ccc(NC(=O)N3CCN(c4ccccc4)CC3)cc2s1 | inactive
48 | O=C(Nc1cccc(Cl)c1)N1CCN(c2ccccc2)CC1 | inactive
49 | O=C(Nc1ccc2[nH]ccc2c1)N1CCN(c2ccccc2)CC1 | inactive
50 | O=C(Nc1ccc2snnc2c1)N1CCCCC1 | inactive
51 | O=C(Nc1cccnc1)c1cc2nc(-c3cccs3)cc(C(F)(F)F)n2n1 | inactive
52 | O=C(Nc1ccc2snnc2c1)N1CCOCC1 | inactive
53 | COc1cc(/C=C/C(=O)Nc2cccnc2)cc(OC)c1OC | inactive
54 | O=C(Nc1ccncc1)c1cc2nc(C3CC3)cc(C(F)F)n2n1 | inactive
55 | Cc1ccc(/C=C(\CCC(=O)O)c2nc3ccccc3s2)cc1 | inactive
56 | CC(=O)c1ccc(N2CCN(C(=O)c3cccnc3)CC2)cc1 | inactive
57 | COC(=O)c1c(C(=O)OC)c(-c2cccc(F)c2)n2c1CS(=O)C2 (stereo not given) | inactive
58 | O=C(Nc1cccnc1)N1CCN(c2ccccc2)CC1 | inactive
59 | O=C(c1ccc2c(c1)OCO2)N1CCN(c2ccc(F)cc2)CC1 | inactive
60 | Cc1cccc(/C=C(\CCC(=O)O)c2nc3ccccc3s2)c1 | inactive
